Reference: ChEMBL document CHEMBL4130599, “VU6010608, a Novel mGlu7 NAM from a Series of N-(2-(1H-1,2,4-Triazol-1-yl)-5-(trifluoromethoxy)phenyl)benzamides” (ACS Med Chem Lett, 2017)
Calls of active or inactive are those of the source. No cut-off for these calls is given here.

Assays:
[1] = Unbound drug level in C57/Bl6 mouse brain assessed as unbound fraction at 10 mg/kg, ip by LC-MS/MS analysis; assay type: ADME, organism-based; details: in vivo
[2] = target: T1, Metabotropic glutamate receptor 1 (Homo sapiens, UniProt Q13255); assay: Agonist activity at mGlu1 receptor (unknown origin); assay type: functional
[3] = Unbound drug level in C57/Bl6 mouse plasma assessed as unbound fraction at 30 mg/kg, ip by LC-MS/MS analysis; assay type: ADME, organism-based; details: in vivo
[4] = Drug level in C57/Bl6 mouse plasma at 30 mg/kg, ip by LC-MS/MS analysis; assay type: ADME, organism-based; details: in vivo
[5] = target: T2, Metabotropic glutamate receptor 5 (Homo sapiens, UniProt P41594); assay: Antagonist activity at mGlu5 receptor (unknown origin); assay type: functional
T2 sequence (P41594 whole entry): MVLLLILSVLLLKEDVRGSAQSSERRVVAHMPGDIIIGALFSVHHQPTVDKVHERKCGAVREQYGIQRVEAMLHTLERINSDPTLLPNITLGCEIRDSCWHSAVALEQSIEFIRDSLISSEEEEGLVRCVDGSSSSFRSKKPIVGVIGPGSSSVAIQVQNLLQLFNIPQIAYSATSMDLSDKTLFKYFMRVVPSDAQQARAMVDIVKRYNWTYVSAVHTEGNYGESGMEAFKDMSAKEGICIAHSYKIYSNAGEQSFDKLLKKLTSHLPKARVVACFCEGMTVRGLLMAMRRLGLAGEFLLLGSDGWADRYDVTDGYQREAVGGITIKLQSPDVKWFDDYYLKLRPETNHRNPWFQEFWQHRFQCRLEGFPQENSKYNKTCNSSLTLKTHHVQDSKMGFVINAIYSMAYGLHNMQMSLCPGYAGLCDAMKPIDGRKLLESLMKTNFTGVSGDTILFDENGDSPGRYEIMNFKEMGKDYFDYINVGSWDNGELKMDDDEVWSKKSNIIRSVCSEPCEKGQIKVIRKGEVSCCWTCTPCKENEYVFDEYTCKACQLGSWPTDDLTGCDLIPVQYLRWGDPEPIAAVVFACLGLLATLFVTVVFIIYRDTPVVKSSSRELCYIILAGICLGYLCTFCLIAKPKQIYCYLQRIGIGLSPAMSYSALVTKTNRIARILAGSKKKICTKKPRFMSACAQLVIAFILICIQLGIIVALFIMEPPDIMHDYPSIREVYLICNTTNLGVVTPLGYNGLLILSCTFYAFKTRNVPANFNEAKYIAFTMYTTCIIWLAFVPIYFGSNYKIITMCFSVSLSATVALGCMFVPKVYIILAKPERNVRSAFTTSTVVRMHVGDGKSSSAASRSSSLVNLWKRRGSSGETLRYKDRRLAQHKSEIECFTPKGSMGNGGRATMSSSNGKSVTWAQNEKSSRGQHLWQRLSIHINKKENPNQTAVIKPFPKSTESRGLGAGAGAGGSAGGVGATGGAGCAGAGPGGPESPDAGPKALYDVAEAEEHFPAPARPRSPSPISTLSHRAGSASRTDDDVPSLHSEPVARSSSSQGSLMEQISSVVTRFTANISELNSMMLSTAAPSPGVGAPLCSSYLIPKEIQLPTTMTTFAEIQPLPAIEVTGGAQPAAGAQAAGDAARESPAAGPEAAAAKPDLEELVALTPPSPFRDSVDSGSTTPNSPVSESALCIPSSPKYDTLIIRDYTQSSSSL

[6] = target: T1, Metabotropic glutamate receptor 1; assay: Antagonist activity at mGlu1 receptor (unknown origin); assay type: functional
[7] = target: T3, Metabotropic glutamate receptor 4 (Homo sapiens, UniProt Q14833); assay: Agonist activity at human mGlu4 expressed in CHO cells co-expressing Gqi5 after 142 secs by Fluo-4AM dye based calcium flux assay; assay type: functional, cell-based
T3 sequence (Q14833 whole entry): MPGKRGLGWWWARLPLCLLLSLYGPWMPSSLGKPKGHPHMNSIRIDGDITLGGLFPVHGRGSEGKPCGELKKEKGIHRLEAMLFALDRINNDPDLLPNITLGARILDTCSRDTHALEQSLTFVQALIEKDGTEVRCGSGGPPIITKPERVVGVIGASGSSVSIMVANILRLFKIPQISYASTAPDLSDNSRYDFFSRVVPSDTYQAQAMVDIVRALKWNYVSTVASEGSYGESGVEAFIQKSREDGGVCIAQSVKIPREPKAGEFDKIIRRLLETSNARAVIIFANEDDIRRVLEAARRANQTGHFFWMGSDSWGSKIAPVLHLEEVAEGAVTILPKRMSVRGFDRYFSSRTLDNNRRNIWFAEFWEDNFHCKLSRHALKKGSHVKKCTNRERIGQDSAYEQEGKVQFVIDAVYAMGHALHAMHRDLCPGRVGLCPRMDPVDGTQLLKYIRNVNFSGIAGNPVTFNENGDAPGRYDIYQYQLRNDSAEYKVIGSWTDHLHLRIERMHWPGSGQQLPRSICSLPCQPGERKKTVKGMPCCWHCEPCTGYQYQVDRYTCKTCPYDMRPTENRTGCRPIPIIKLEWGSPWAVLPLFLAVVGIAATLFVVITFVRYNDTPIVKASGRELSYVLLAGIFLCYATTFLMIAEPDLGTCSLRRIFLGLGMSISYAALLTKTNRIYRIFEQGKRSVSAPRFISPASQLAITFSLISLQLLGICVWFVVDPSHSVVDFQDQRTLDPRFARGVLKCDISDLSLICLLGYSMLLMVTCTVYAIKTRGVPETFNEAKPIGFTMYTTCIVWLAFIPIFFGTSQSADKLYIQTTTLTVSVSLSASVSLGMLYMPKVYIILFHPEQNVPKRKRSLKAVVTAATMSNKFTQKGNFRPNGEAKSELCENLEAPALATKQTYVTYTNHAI

[8] = Drug metabolism in rat hepatic S9 fraction assessed as amide hydrolysis after 60 mins in presence of NADPH/UDPGA/PAPS by LC/MS analysis; assay type: ADME, subcellular, Liver; details: s9, 1 h
[9] = target: T4, Metabotropic glutamate receptor 3 (Homo sapiens, UniProt Q14832); assay: Antagonist activity at mGlu3 receptor (unknown origin); assay type: functional
T4 sequence (Q14832 whole entry): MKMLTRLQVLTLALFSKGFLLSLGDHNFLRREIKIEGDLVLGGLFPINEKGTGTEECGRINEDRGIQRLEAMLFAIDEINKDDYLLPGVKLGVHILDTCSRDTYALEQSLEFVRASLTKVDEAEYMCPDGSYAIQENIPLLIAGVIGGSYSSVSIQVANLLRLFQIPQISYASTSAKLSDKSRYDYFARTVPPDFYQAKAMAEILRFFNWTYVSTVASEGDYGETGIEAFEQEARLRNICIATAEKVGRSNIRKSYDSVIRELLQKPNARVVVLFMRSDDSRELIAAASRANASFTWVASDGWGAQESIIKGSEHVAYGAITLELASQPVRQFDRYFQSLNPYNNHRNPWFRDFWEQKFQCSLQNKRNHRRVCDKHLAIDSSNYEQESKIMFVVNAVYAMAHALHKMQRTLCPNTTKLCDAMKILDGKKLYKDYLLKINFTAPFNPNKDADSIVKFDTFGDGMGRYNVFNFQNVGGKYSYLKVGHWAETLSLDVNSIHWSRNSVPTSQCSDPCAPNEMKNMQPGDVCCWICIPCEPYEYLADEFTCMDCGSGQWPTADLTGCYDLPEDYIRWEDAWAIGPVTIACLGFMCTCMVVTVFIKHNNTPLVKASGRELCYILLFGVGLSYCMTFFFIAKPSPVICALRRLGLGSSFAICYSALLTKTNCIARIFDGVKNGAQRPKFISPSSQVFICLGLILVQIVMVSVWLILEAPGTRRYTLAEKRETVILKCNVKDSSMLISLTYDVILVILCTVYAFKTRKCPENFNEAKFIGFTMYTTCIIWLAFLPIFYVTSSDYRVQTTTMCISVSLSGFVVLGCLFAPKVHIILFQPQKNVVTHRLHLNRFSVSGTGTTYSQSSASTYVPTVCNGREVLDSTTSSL

[10] = Unbound brain to plasma concentration ratio in cannulated Sprague-Dawley rat at 0.2 to 0.25 mg/kg, iv administered as cassette dose measured after 0.25 hrs by LC-MS/MS analysis; assay type: ADME, organism-based; details: brain and plasma, read-out: K(p,uu,brain)
[11] = target: T5, Metabotropic glutamate receptor 8 (Rattus norvegicus, UniProt P70579); assay: Antagonist activity at rat mGlu8 expressed in HEK cells co-expressing Galpha15 assessed as reduction in L-AP4-induced intracellular calcium flux pretreated for 142 secs followed by glutamate addition and subsequent stimulation of L-AP4 for 40 secs by Fluo-4 AM dye based fluorescence assay; assay type: functional, cell-based
T5 sequence (P70579 whole entry): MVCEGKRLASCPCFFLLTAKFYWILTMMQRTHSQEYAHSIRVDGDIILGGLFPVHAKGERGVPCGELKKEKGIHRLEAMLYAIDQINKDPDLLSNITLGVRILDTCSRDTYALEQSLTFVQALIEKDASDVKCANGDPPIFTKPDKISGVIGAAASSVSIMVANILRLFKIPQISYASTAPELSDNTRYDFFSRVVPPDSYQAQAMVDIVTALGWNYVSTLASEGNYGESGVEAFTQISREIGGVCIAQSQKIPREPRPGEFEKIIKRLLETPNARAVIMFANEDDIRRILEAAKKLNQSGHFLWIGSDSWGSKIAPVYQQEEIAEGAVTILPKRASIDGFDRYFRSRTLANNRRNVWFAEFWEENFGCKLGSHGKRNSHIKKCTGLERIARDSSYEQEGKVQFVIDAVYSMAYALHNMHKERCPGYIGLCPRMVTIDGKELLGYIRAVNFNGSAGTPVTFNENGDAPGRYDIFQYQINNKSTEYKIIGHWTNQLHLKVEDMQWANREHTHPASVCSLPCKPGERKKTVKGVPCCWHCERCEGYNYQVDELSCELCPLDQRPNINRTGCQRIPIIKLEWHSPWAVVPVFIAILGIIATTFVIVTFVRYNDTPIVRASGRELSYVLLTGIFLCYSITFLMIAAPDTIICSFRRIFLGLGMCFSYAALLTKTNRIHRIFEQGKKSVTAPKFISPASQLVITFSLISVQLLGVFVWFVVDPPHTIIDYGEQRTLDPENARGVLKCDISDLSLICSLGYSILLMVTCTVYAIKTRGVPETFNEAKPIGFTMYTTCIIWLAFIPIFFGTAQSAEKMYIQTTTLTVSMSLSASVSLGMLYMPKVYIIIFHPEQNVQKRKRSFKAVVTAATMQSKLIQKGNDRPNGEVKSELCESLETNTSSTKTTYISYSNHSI

[12] = Protein binding in mouse plasma assessed as unbound fraction measured after 4 hrs by LC-MS/MS based equilibrium dialysis method; assay type: ADME, cell-free
[13] = target: T4, Metabotropic glutamate receptor 3; assay: Agonist activity at mGlu3 receptor (unknown origin); assay type: functional
[14] = Drug level in C57/Bl6 mouse plasma at 10 mg/kg, ip by LC-MS/MS analysis; assay type: ADME, organism-based; details: in vivo
[15] = target: T6, Metabotropic glutamate receptor 6 (Homo sapiens, UniProt O15303); assay: Antagonist activity at mGlu6 receptor (unknown origin); assay type: functional
[16] = target: T7, Metabotropic glutamate receptor 2 (Homo sapiens, UniProt Q14416); assay: Antagonist activity at mGlu2 receptor (unknown origin); assay type: functional
[17] = Clearance in cannulated Sprague-Dawley rat at 0.2 to 0.25 mg/kg, iv administered as cassette dose by LC-MS/MS analysis; assay type: ADME, organism-based; details: in vivo
[18] = Half life in cannulated Sprague-Dawley rat at 0.2 to 0.25 mg/kg, iv administered as cassette dose by LC-MS/MS analysis; assay type: ADME, organism-based; details: in vivo
[19] = Protein binding in rat brain assessed as unbound fraction measured after 6 hrs by LC-MS/MS based equilibrium dialysis method; assay type: ADME, tissue-based
[20] = Unbound drug level in C57/Bl6 mouse brain assessed as unbound fraction at 100 mg/kg, ip by LC-MS/MS analysis; assay type: ADME, organism-based; details: in vivo
[21] = target: T5, Metabotropic glutamate receptor 8; assay: Agonist activity at rat mGlu8 expressed in HEK cells co-expressing Galpha15 measured after 142 secs by Fluo-4 AM dye based calcium flux assay; assay type: functional, cell-based
[22] = target: T6, Metabotropic glutamate receptor 6; assay: Agonist activity at mGlu6 receptor (unknown origin); assay type: functional
[23] = Unbound drug level in C57/Bl6 mouse plasma assessed as unbound fraction at 100 mg/kg, ip by LC-MS/MS analysis; assay type: ADME, organism-based; details: in vivo
[24] = Protein binding in rat plasma assessed as unbound fraction measured after 4 hrs by LC-MS/MS based equilibrium dialysis method; assay type: ADME, cell-free
[25] = Drug level in C57/Bl6 mouse brain at 10 mg/kg, ip by LC-MS/MS analysis; assay type: ADME, organism-based; details: in vivo, read-out: Drug uptake
[26] = Brain to plasma partition coefficient, Kp of the compound in cannulated Sprague-Dawley rat at 0.2 to 0.25 mg/kg, iv administered as cassette dose measured after 0.25 hrs by LC-MS/MS analysis; assay type: ADME, organism-based; details: brain and plasma
[27] = Unbound brain to plasma concentration ratio in C57/Bl6 mouse at 100 mg/kg, ip measured after 0.5 hrs by LC-MS/MS analysis; assay type: ADME, organism-based; details: brain and plasma, read-out: K(p,uu,brain)
[28] = Unbound drug level in C57/Bl6 mouse plasma at 10 mg/kg, ip by LC-MS/MS analysis; assay type: ADME, organism-based; details: in vivo
[29] = target: T3, Metabotropic glutamate receptor 4; assay: Antagonist activity at human mGlu4 expressed in CHO cells co-expressing Gqi5 assessed as reduction in L-AP4-induced intracellular calcium flux pretreated for 142 secs followed by glutamate addition and subsequent stimulation of L-AP4 for 40 secs by Fluo-4 AM dye based fluorescence assay; assay type: functional, cell-based
[30] = target: T7, Metabotropic glutamate receptor 2; assay: Agonist activity at mGlu2 receptor (unknown origin); assay type: functional
[31] = Volume of distribution at steady state in cannulated Sprague-Dawley rat at 0.2 to 0.25 mg/kg, iv administered as cassette dose by LC-MS/MS analysis; assay type: ADME, organism-based; details: in vivo, read-out: Vdss
Brain = assay: Blockade of high-frequency stimulation-induced long-term potentiation at SC-CA1 synapses in C57BL/6J mouse brain slices at 10 uM pretreated for 10 mins followed by high-frequency stimulation measured up to 60 mins; assay type: functional, tissue-based
[32] = Brain to plasma partition coefficient, Kp of the compound in C57/Bl6 mouse at 10 mg/kg, ip measured after 0.5 hrs by LC-MS/MS analysis; assay type: ADME, organism-based; details: brain and plasma
[33] = Brain to plasma partition coefficient, Kp of the compound in C57/Bl6 mouse at 30 mg/kg, ip measured after 0.5 hrs by LC-MS/MS analysis; assay type: ADME, organism-based; details: brain and plasma
[34] = Unbound brain to plasma concentration ratio in C57/Bl6 mouse at 30 mg/kg, ip measured after 0.5 hrs by LC-MS/MS analysis; assay type: ADME, organism-based; details: brain and plasma, read-out: K(p,uu,brain)
[35] = target: T2, Metabotropic glutamate receptor 5; assay: Agonist activity at mGlu5 receptor (unknown origin); assay type: functional
[36] = Unbound drug level in C57/Bl6 mouse brain assessed as unbound fraction at 30 mg/kg, ip by LC-MS/MS analysis; assay type: ADME, organism-based; details: in vivo
[37] = Unbound brain to plasma concentration ratio in C57/Bl6 mouse at 10 mg/kg, ip measured after 0.5 hrs by LC-MS/MS analysis; assay type: ADME, organism-based; details: brain and plasma, read-out: K(p,uu,brain)
[38] = Brain to plasma partition coefficient, Kp of the compound in C57/Bl6 mouse at 100 mg/kg, ip measured after 0.5 hrs by LC-MS/MS analysis; assay type: ADME, organism-based; details: brain and plasma
[39] = Drug level in C57/Bl6 mouse brain at 30 mg/kg, ip by LC-MS/MS analysis; assay type: ADME, organism-based; details: in vivo, read-out: Drug uptake
[40] = Drug level in C57/Bl6 mouse brain at 100 mg/kg, ip by LC-MS/MS analysis; assay type: ADME, organism-based; details: in vivo, read-out: Drug uptake
Mus musculus = assay: Toxicity in C57/Bl6 mouse at 100 mg/kg, ip; assay type: organism-based; details: in vivo
[41] = Oral bioavailability in cannulated Sprague-Dawley rat; assay type: ADME, organism-based; details: in vivo
[42] = target: Metabotropic glutamate receptor 7 (Rattus norvegicus, UniProt P35400); assay: Negative allosteric modulation of rat mGlu7 expressed in HEK cells co-expressing Galpha15 assessed as reduction in L-AP4-induced intracellular calcium flux pretreated for 142 secs followed by glutamate addition and subsequent stimulation of L-AP4 for 40 secs by Fluo-4 AM dye based fluorescence assay; assay type: functional, cell-based
Sequence of Metabotropic glutamate receptor 7 (P35400 whole entry): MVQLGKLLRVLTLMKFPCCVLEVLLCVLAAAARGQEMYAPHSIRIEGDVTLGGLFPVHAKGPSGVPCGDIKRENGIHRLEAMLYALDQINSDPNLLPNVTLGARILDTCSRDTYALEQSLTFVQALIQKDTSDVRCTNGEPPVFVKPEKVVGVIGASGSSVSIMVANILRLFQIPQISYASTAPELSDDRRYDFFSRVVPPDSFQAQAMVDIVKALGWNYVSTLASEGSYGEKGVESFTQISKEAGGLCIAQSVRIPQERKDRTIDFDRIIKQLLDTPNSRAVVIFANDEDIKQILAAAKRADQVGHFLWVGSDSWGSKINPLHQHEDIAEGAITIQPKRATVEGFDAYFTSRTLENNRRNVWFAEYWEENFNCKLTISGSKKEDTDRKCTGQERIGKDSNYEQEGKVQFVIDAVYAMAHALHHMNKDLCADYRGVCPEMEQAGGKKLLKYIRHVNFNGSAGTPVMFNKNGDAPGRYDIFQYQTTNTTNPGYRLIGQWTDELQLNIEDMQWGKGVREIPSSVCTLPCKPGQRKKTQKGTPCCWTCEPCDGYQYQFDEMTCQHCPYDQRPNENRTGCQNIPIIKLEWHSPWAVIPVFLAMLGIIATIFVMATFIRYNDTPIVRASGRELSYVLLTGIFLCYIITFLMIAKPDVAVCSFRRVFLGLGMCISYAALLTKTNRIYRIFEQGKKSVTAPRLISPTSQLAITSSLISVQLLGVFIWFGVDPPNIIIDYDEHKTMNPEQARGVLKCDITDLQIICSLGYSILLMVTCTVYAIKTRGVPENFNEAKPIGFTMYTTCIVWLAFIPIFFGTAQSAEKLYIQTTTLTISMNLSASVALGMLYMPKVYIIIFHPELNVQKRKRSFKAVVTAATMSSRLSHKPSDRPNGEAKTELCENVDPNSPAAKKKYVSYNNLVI

COc1ccc(C(=O)Nc2cc(OC(F)(F)F)ccc2-n2cncn2)cc1OC
Drug uptake(free) [1]: 14.3 nM
EC50 [2]: > 10 µM
Cp(f) [3]: 71.5 nM
concentration [4]: 402 nM
IC50 [5]: > 10 µM
IC50 [6]: > 10 µM
EC50 [7]: > 10 µM
Drug metabolism [8]: Metabolite_Detected
IC50 [9]: > 10 µM
Kp uu at 0.25 h [10]: 0.48
IC50 [11]: > 10 µM
fraction unbound at 4 h [12]: 0.178
EC50 [13]: > 10 µM
concentration [14]: 180 nM
IC50 [15]: > 10 µM
IC50 [16]: > 10 µM
clearance [17]: 64.2 mL/min/kg
half-life [18]: 1.73 h
fraction unbound at 6 h [19]: 0.034
Drug uptake(free) [20]: 59 nM
EC50 [21]: > 10 µM
EC50 [22]: > 10 µM
Cp(f) [23]: 137 nM
Fu ([24]; 4 h): 0.244
concentration [25]: 380 nM
Kp at 0.25 h [26]: 3.4
Kp uu at 0.5 h [27]: 0.43
Cp(f) [28]: 32.5 nM
IC50 [29]: > 10 µM
EC50 [30]: > 10 µM
Vd [31]: 6.2 L/kg
Activity (Brain): Active
Kp at 0.5 h [32]: 2.01
Kp at 0.5 h [33]: 2.36
Kp uu at 0.5 h [34]: 0.51
EC50 [35]: > 10 µM
Drug uptake(free) [36]: 36.2 nM
Kp uu at 0.5 h [37]: 0.44
Kp at 0.5 h [38]: 2
concentration [39]: 952 nM
concentration [40]: 1550 nM
Activity (Mus musculus): Non-Toxic
bioavailability [41]: 18.9%

COc1cc(C(=O)Nc2cc(OC(F)(F)F)ccc2-n2cncn2)ccc1OC1CC1
Kp uu at 0.25 h [10]: 1.5
fraction unbound at 4 h [12]: 0.039
IC50 [42]: 0.71 µM
fraction unbound at 6 h [19]: 0.013
fraction unbound at 4 h [24]: 0.052
Kp at 0.25 h [26]: 5.8

COc1ccc(C(=O)Nc2cc(Cl)ccc2-n2cncn2)cc1OC
IC50 [11]: > 30 µM
IC50 [42]: 5.8 µM
IC50 [29]: > 30 µM

CCCOc1ccc(C(=O)Nc2cc(OC(F)(F)F)ccc2-n2cncn2)cc1OC
Kp uu at 0.25 h [10]: 1
fraction unbound at 4 h [12]: 0.019
fraction unbound at 6 h [19]: 0.009
fraction unbound at 4 h [24]: 0.017
Kp at 0.25 h [26]: 1.9

CCOc1ccc(C(=O)Nc2cc(OC(F)(F)F)ccc2-n2cncn2)cc1OC
Kp uu at 0.25 h [10]: 0.83
fraction unbound at 4 h [12]: 0.086
fraction unbound at 6 h [19]: 0.017
fraction unbound at 4 h [24]: 0.072
Kp at 0.25 h [26]: 3.5

COc1cc(C(=O)Nc2cc(OC(F)(F)F)ccc2-n2cncn2)ccc1OC(C)C
Kp uu at 0.25 h [10]: 0.89
fraction unbound at 4 h [12]: 0.063
fraction unbound at 6 h [19]: 0.013
fraction unbound at 4 h [24]: 0.065
Kp at 0.25 h [26]: 4.4

CCc1nc2c(o1)CC(c1ccc(C)cc1C)CC2=O (stereo not given)
IC50 [42]: 0.676 µM
Activity (Mus musculus): Non-Toxic

COc1cc(C(=O)Nc2cc(OC(F)(F)F)ccc2-n2cncn2)ccc1OC1CCCC1
IC50 [42]: 1.4 µM
